How the values were obtained:
[1] = test system: P. falciparum sphingomyelin synthase; experiment: Inhibition of plasmodial sphingomyelin biosynthesis in intact infected erythrocytes (C6-NBD-ceramide to C6-NBD-sphingomyelin); type: cell-based, Plasmodium falciparum; settings: for [%] inhibition of sphingomyelin biosynthetic activity: 5 μM compound; for effect on sphingomyelin synthase enzyme activity: 5 μM compound (Example 3)
Procedure: 1×10^8 infected cells 24 h after invasion were washed serum-free in RPMI 1640 and preincubated for thirty min at 37° C. in 1 ml of RPMI 1640 containing 0-5 μM or 0-500 μM of PPMP. (C6-NBD-ceramide (N-[7-(4-nitrobenzo-2-oxa-1,3-diazide)]-6-aminocaproyl-D-erythro-sphingosine) was added to each sample at a final concentration of 5 μM, the samples further incubated for 30 min at 37° C. and cellular lipids extracted. C6-NBD-sphingomyelin was resolved by TLC and quantitated by fluorescence spectrophotometry as described previously. Bligh, E. G. and Dyer, W. Y. (1959) A rapid method for total lipid extraction and purification., Can. J. Biochem. Physiol. 37: 911-917. Haldar, K., Uyetake, L., Ahori, N., Elmendorf, H. G. and Lu, W-1. (1991) The accumulation and metabolism of a fluorescent ceramide derivative in Plasmodium falciparum-infected erythrocytes., Mo. Biochem. Parasitol. 49: 143-156. Elmendorf, H. G. and Haldar, K. (1994) Plasmodium falciparum exports the Golgi marker sphingomyelin synthase into a tubovesicular network in the cytoplasm of mature erythrocytes., J. Cell Biol. 124: 449-462. Each value obtained represented the mean of triplicate determinations from five experiments. The arrow bars indicate the standard deviations. The results are depicted in FIG. 1.
(§1) P. falciparum strain FCB was used for all experiments and cultured in vitro in according to a modification of the method of Trager and Jensen left off. Trager, W. and Jensen, J. B. (1976) Human malaria in continuous culture., Science (Wash. D.C.) 193: 673-675 Haldar, K., Ferguson, M. A. J. and Cross, G. A. M. (1985) Acylation of a Plasmodium falciparum merozoite surface antigen via sn-1, 2-diacyl glycerol. J. Biol. Chem. 260; 4969-4974 The culture medium contained RPMI 1640 supplemented with 25 Mm hepes, Ph 7.4/[…]/92 μM hypoxanthine/0.18% sodium bicarbonate/25 μM gentamicin and 10% AB^+ human sera. The parasites were grown in A^+ erythrocytes at 2.5-5% hematocrit. Parasite cultures were synchronized by separation of the early and late stages on a Percoll gradient. The subsequent reincubation of these stages in culture were used to obtain cells 12-24h in the life cycle. Inhibition of sphingomyelin biosynthetic activity using 5 μM of the various compounds was carried out as described in Example 1. 5 μM of the various compounds were added to 0-12 h rings in the culture medium and cells were examined by Giemsa staining after 24 h.

P. falciparum schizonts = experiment: Schizont maturation, merozoite invasion and ring viability in the presence of drug; type: cell-based, Plasmodium falciparum; settings: for fate of schizonts greater than 40 h in the cycle: in the presence of 5 μM drug
protein synthesis = experiment: Effect on protein synthesis; type: cell-based
DNA synthesis = experiment: Effect on DNA synthesis; type: cell-based
P. falciparum = experiment: Intraerythrocytic development in long term culture, parasitemia over consecutive cycles; type: cell-based, Plasmodium falciparum
Procedure: Synchronized cultures 12 h after invasion were subjected to different concentrations of PPMP. Parasitemias of drug-treated cultures were determined at various time points during two intraerythrocytic cycles and compared to cells grown in the absence of drug.
The effect of the single lipid analogs to inhibit parasite development in long term culture in consecutive cycles of the parasite growth were investigated. The studies were initiated with synchronized, young rings (0-12 h) at 10% parasitemia. In order to ensure healthy growth of the malaria parasite in vitro, the parasitemias of the cultures are not allowed to exceed 10%. Yet under normal conditions a 3-6 fold increase in parasitemias is detected with each round of invasion: thus for each new cycle, the cultures were diluted 4-fold into fresh erythrocytes in the absence or presence of the drug. […] The lowest effective, killing concentration of PDMP over three cycles of growth is 1.0 μM.

[2] = test system: P. falciparum sphingomyelin synthase; experiment: Inhibition of sphingomyelin biosynthesis in hypotonically lysed infected erythrocytes and fractions; type: biochemical, Plasmodium falciparum
Procedure: Cells were washed serum-free in PBS and intact cells were incubated in PBS. Cells were lysed in 10 volumes of hypotonic buffer. Pellets and supernatants were separated by centrifugation at 10^4 ×G for 10 min at 4° C. Inhibition of sphingomyelin biosynthetic activity was carried out as described in Example 1. Glutamate dehydrogenase, a parasite cytosolic activity, was assayed using 10 μM alpha-ketoglutarate and 0.1 μM NADPH for 1 h at 37° C. by measuring the absorption at 340 nm in a spectrophotometer. The following table indicates the results

[3] = test system: tubovesicular membrane reticulum (TVM) of P. falciparum-infected erythrocytes; experiment: Tubovesicular membrane (TVM) morphology by confocal microscopy with C5-DMB-ceramide; type: cell-based, Plasmodium falciparum; settings: 5 μM PPMP; C5 DMB-ceramide staining; 240 optical sections, 20 cells
Procedure: Schizont-stage parasites isolated over Percoll were allowed to invade in the presence of RPMI 1640 containing 10% human serum or in the presence of RPMI 1640 containing 10% human serum and 5 μM PPMP. 1×10^8 infected erythrocytes of the appropriate stage were incubated in 1 ml of RPMI 1640 supplemented with 2 mg/ml defatted BSA and 20 μM C5 -DMB-ceramide. Cells were washed and fixed as described in Example 5. Sequential micrographs were taken on a custom made laser confocal microscope at 400 nm intervals along the Z axis. Raw data were processed as described previously.

P. falciparum strain FCB = experiment: Inhibition of intraerythrocytic growth in culture (Giemsa staining after 24 h); type: cell-based, Plasmodium falciparum; settings: 5 μM compound added to 0-12 h rings
From the text: as §1

CCCCCCCCCC(=O)N[C@H](CN1CCOCC1)[C@H](O)c1ccccc1 (relative stereo) [PDMP, dl-threo-1-phenyl-2-decanoylamino-3-morpholino-1-propanol]
[%] inhibition of sphingomyelin biosynthetic activity ([1]; infected erythrocytes): 31% | fate of schizonts greater than 40 h in the cycle (P. falciparum schizonts): mature and rupture | inhibition of protein synthesis (protein synthesis): not inhibitory | inhibition of DNA synthesis (DNA synthesis): not inhibitory

CCCCCCCCCCCCCCCCCCN [stearylamine]
effect on sphingomyelin synthase enzyme activity [1]: no effect | [%] inhibition of sphingomyelin biosynthetic activity ([1]; infected erythrocytes): 0%

CCCCCCCCCCCCC/C=C/[C@@H](O)[C@@H](N)CO [sphingosine]
effect on sphingomyelin synthase enzyme activity [1]: no effect | [%] inhibition of sphingomyelin biosynthetic activity ([1]; infected erythrocytes): 0%

CCCCCCCCCCCCCCCC(=O)N[C@H](CN1CCOCC1)[C@H](O)c1ccccc1 (relative stereo) [PPMP, dl-threo-1-phenyl-2-palmitoylamino-3-morpholino-1-propanol]
[%] inhibition of sphingomyelin biosynthetic activity ([1]; infected erythrocytes): 36% | total cellular sphingomyelin synthase activity inhibited ([1]; 500 μM PPMP, infected erythrocytes): 80-90% | change of sphingomyelin synthase activity ([1]; 0.05-0.5 μM PPMP, infected erythrocytes): initial, rapid decrease | average inhibition of sphingomyelin synthase activity ([1]; 1-5 μM PPMP, infected erythrocytes): 35% | concentration at which the sensitive pool of sphingomyelin synthase activity is completely inhibited ([1]; infected erythrocytes): 1 to 5 µM | inhibition of sphingomyelin biosynthesis at 5 μM PPMP [%] ([1]; intact cells, 5 μM PPMP): 35% | effect on development of trophozoite stage parasites (P. falciparum): blocks | relative efficacy in long term growth inhibition (P. falciparum): more effective than PDMP | effect on rings in their first cycle growth (P. falciparum; 5 μM drug): completely inhibits | development through the first cycle (P. falciparum; concentrations as low as 0.05 μM): do not stop development through the first cycle | inhibition of sphingomyelin biosynthesis at 5 μM PPMP [%] ([2]; hypotonic lysates): 33% | inhibition of sphingomyelin biosynthesis at 5 μM PPMP [%] ([2]; pellet of lysate (10^4 xG)): 30% | inhibition of sphingomyelin biosynthesis at 5 μM PPMP [%] ([2]; supernatant of lysate (10^4 xG)): 3% | effect on schizont maturation or merozoite invasion into erythrocytes (P. falciparum schizonts; 5 μM PPMP): not to block | fate of schizonts greater than 40 h in the cycle (P. falciparum schizonts): mature and rupture | development of rings after being washed free of the drug (P. falciparum schizonts; rings formed in 5 μM PPMP): developed normally | TVM morphology of rings formed in the presence of drug [3]: markedly devoid of tubular connections

CN(C)CCCN1c2ccccc2CCc2ccccc21 [imipramine]
effect on sphingomyelin synthase enzyme activity [1]: no effect | [%] inhibition of sphingomyelin biosynthetic activity ([1]; infected erythrocytes): 0%

CCCCCCCCCCCCCCC[C@H](O)[C@@H](N)CO (racemic) [dl-dihydrosphingosine]
effect on sphingomyelin synthase enzyme activity [1]: no effect | [%] inhibition of sphingomyelin biosynthetic activity ([1]; infected erythrocytes): 4% | [%] inhibition of growth (P. falciparum strain FCB): 8%

CCCCCCCCCC(=O)N[C@@H](CN1CCOCC1)[C@H](O)c1ccccc1 (relative stereo) [dl-erythro-PDMP]
effect on sphingomyelin synthase enzyme activity [1]: no effect | [%] inhibition of sphingomyelin biosynthetic activity ([1]; infected erythrocytes): 3%

CCN(CC)CCO[C@H]1CC[C@@]2(C)C(=CC[C@@H]3[C@@H]2CC[C@]2(C)C(=O)CC[C@@H]32)C1 [U 18666 A]
effect on sphingomyelin synthase enzyme activity [1]: no effect | [%] inhibition of sphingomyelin biosynthetic activity ([1]; infected erythrocytes): 0%

From US5976781A, “Determining plasmodium in blood by sphingomyelin synthase activity” (The Board of Trustees of the Leland Stanford Junior …, priority 1995, dated 1999)
